Source: PMC9665079, “Structure-activity exploration of a small-molecule allosteric inhibitor of T790M/L858R double mutant EGFR” (Journal of Enzyme Inhibition and Medicinal Chemistry, 2022)

Tests used:
[1] = system: T790M/L858R double mutant EGFR; set-up: method as in PMID 29766737; conditions: type III allosteric inhibitor of T790M/L858R double mutant EGFR; cited from earlier work
EGFR(T790M/L858R) = molecular target: T1, EGFR(T790M/L858R) (Homo sapiens, UniProt P00533, L858R/T790M); test: In vitro non-radioactive kinase assay, EGFR(T790M/L858R) Kinase Assay Kit (BPS Bioscience); assay type: biochemical; conditions: for IC50: EGFR(T790M/L858R) Kinase Assay Kit, concentration inhibiting 50% enzyme activity, read-out: IC50 (μM) ± Std. Dev.; for Activity on mutant EGFR in kinase assay (in words): compared with compound 4, five independent experiments
T1 construct: purchased BPS Bioscience 40322
Procedure: In vitro kinase assays were performed using the EGFR(T790M/L858R) Kinase Assay Kit (BPS
Bioscience, Cat. #40322) in the presenc e of compounds or vehicle . Assays conditions were set
according to the manufacturer’s instructions. Dose -response curves were fitted by non -linear
regression of normalized enzyme activity vs log[inhibitor] data, using GraphPad Prism software. […]

[2] = system: mutant EGFR H1650 cell line; set-up: method as in PMID 29766737; conditions: read-out: IC50 anti-proliferative activity; cited from earlier work
[3] = system: double mutant H1975 cell line; set-up: method as in PMID 29766737; conditions: read-out: IC50 anti-proliferative activity; cited from earlier work
wt EGFR H1299 cell line = system: wt EGFR H1299 cell line; set-up: method as in PMID 29766737; conditions: read-out: IC50 anti-proliferative activity; cited from earlier work
[4] = system: phospho-EGFR (Tyr1068) in H1975 cells; test: EGFR phosphorylation by Western blot in H1975 cells; assay type: cell-based; conditions: Western blot after 8-h incubation, 10 µM
Procedure: (§1) Figure 3. Activity of compounds 15 and 18 in H1975 cells. (A) Cell viability was measured by MTS assay. (B) EGFR phosphorylation was assessed by Western blot after 8-h incubation with the compounds (10 µM). Total EGFR and actin are shown for loading control. […]
(§2) 3-nitroaniline 1a (119 mg); 4-fluoro-3-(iminomethyl)phenyl acetate 2h (181 mg); 5-fluoro-2-methyl-1H-indole 3b (149 mg); purification: procedur b, […]
In vitro kinase assays were performed using the EGFR(T790M/L858R) Kinase Assay Kit (BPS Bioscience, Cat. #40322) in the presenc e of compounds or vehicle . Assays conditions were set according to the manufacturer’s instructions. Dose -response curves were fitted by non -linear regression of normalized enzyme activity vs log[inhibitor] data, using GraphPad Prism software.
(§3) For cytotoxicity assays, compounds were added to cells in 96-well plates for 72 hours. Cell viability was measured by MTS assay using the CellTiter 96® AQueous One Solution Cell Proliferation Assay System (Promega, Madison, WI, USA) according to instructions. Inhibition of EGFR was assessed by Western blotting after incubating the cells with the compounds for 8 hours. […]
(§4) Chemiluminescence was detected using a ChemiDoc XRS+ System (Bio-Rad, Hercules, CA, USA) and Image Lab software (Bio-Rad). […]

[5] = system: H1975 lung cancer cell line expressing the double mutant L858R/T790M EGFR; test: Cell proliferation / viability by MTS assay in H1975 cells; assay type: cell-based; conditions: 72 hours, micromolar concentrations
Procedure: Compounds 15 and 18 were then tested in cell proliferation assays on the H1975 lung cancer cell line expressing the double mutant L858R/T790M EGFR.
as §1, §2
In vitro kinase assays were performed using the EGFR(T790M/L858R) Kinase Assay Kit (BPS Bioscience, Cat. #40322) in the presenc e of compounds or vehicle . Assays conditions were set according to the manufacturer’s instructions. […]
as §3, §4

IC50 (EGFR(T790M/L858R)) [µM] | Compound | Activity on mutant EGFR in kinase assay (in words) (EGFR(T790M/L858R)) | other results
154 ± 11 | Cc1[nH]c2ccccc2c1C(Nc1cccc([N+](=O)[O-])c1)c1ccccn1 (stereo not shown) [Compound 4] | – | EC50 [1]: 6.2 ± 0.5 µM; IC50 [2]: 19 ± 2 µM; IC50 [3]: 24 ± 2 µM; IC50 (wt EGFR H1299 cell line): 14.5 ± 0.3 µM
123 ± 17 | Cc1[nH]c2ccc(F)cc2c1C(Nc1cccc([N+](=O)[O-])c1)c1ccccn1 (stereo not shown) [Compound 7] | – | –
95 ± 31 | O=[N+]([O-])c1cccc(NC(c2ccccn2)c2c[nH]c3ccccc23)c1 (stereo not shown) [Compound 8] | – | –
96 ± 30 | Cc1[nH]c2ccccc2c1C(Nc1cccc([N+](=O)[O-])c1)c1ncccc1O (stereo not shown) [Compound 12] | – | –
– | Cc1[nH]c2ccccc2c1C(Nc1cccc([N+](=O)[O-])c1)c1ccccc1 (stereo not shown) [Compound 13] | lack of activity | –
– | COc1ccc(F)cc1C(Nc1cccc([N+](=O)[O-])c1)c1c(C)[nH]c2ccccc12 (stereo not shown) [Compound 14] | lack of activity | –
33 ± 4 | Cc1[nH]c2ccccc2c1C(Nc1cccc([N+](=O)[O-])c1)c1ccccc1O (stereo not shown) [Compound 15] | significantly improved activity with respect to 4 | Inhibition of EGFR phosphorylation (in words) [4]: inhibited; Inhibition of cell proliferation (in words) [5]: inhibited cell proliferation
63 ± 12 | Cc1[nH]c2ccccc2c1C(Nc1cccc([N+](=O)[O-])c1)c1cc(F)ccc1O (stereo not shown) [Compound 17] | – | –
27 ± 5 | Cc1[nH]c2ccccc2c1C(Nc1cccc([N+](=O)[O-])c1)c1cc(O)ccc1F (stereo not shown) [Compound 18] | significantly improved activity with respect to 4 | Inhibition of EGFR phosphorylation (in words) [4]: inhibited; Inhibition of cell proliferation (in words) [5]: inhibited cell proliferation
